“Also recorded” adds a separate entry of the source.
Tests used:
Assay type in all cases: cell-based
MCF7 cells = experiment: Doxorubicin chemosurvival of MCF7 cells; conditions: for doxorubicin chemosurvival with co-treatment: 500 nM Doxorubicin treated MCF7 cells co-treated with agent (5 uM Trazodone, 5 uM ISRIB, 6uM Enzastaurin) vs DMSO buffer
Experimental: This was tested in METTL3 overexpression cells compared to CD-M3 cells compared to control Actin mRNA by qPCR. […] 500 nM Doxorubicin treated MCF7 cells were co-treated with (i) 5 uM of Trazodone, (ii) 5 uM of ISRIB, or DMSO buffer. […] Data are average of 3 replicates +/-SEM. Actin and Tubulin are loading controls for Western blots. See also FIG. 8A-8l.
(§1) FIGS. 8C and 8D show Western blot analysis of PARP1, phospho-elF2α, METTL3 with doxorubicin or Sal003 treatment. […] 500 nM Doxorubicin treated MCF7 cells were co-treated with 6uM of Enzastaurin or DMSO buffer. […] Data are average of 3 replicates +/-SEM.

[1] = system: CD14+ monocytes, CD8+ T cells, and NK (NK92) cells; experiment: Co-culture of treated cancer cells with immune cells; conditions: untreated or doxorubicin or gemcitabine treated cells plus agent
Text: APOBEC3B would lead to neoepitopes that could trigger the immune system. However, this is not readily seen as inhibitors of immune cells such as TGF-β that inhibits NK cells are increased in doxorubicin treated breast cancer cells. […] M6A also downregulates antiviral innate immune response while promoting ADAR1 that suppresses antiviral immunity. Therefore, inhibition of METTL3 would activate them.

METTL3 [2] = experiment: Western blot analysis of METTL3 in MCF7 cells; conditions: for METTL3 level in doxorubicin treated cells co-treated with agent: doxorubicin treated cells plus agent vs buffer treated
Text: The Western blot includes samples with control shRNA or shMETTL3. […] Tubulin and Histone serve as Western blot loading controls. Data are average of 3 replicates +/-SEM. See also FIGS. 2A-2G.
(§2) Data are average of 3 replicates +/-SEM. Tubulin serves as the loading control.
(§3) Tubulin and Histone serve as Western blot loading controls. Data are average of 3 replicates +/-SEM. See also FIGS. 4A-4H.
(§4) Actin and Tubulin are loading controls for Western blots. Data are average of 3 replicates +/-SEM.
as §1
(§5) To determine the mechanisms of specific mRNA expression in chemosurviving cancer cells, we examined RNA binding regulators in chemosurviving MCF7 breast cancer cells, isolated after doxorubicin chemotherapy treatment.

phospho-elF2α [3] = experiment: Western blot of elF2α phosphorylation in MCF7 cells; conditions: for elF2α phosphorylation: MCF7 cells, agent alone, Western blot; for elF2α phosphorylation in doxorubicin treated cells with agent: addition to doxorubicin treated cells (FIG. 8F)
Experimental: as §1

METTL3 [4] = experiment: Western blot of METTL3 in THP1 cells; conditions: 1 µM Cytarabine over time
phospho-elF2α [5] = experiment: Western blot of elF2α phosphorylation in THP1 cells; conditions: 1 µM Cytarabine over time
METTL3 [6] = experiment: Western blot of METTL3 in BT549 cells; conditions: over time of treatment
phospho-elF2α [7] = experiment: Western blot of elF2α phosphorylation in BT549 cells; conditions: over time of treatment
Experimental: as §2
as §5, with “treatment. […] The increase observed is transient and is not observed at 48 h of treatment (FIG. 2A).” for “treatment.”

METTL14 = experiment: Western blot analysis of METTL14 in MCF7 cells; conditions: for METTL14 level in doxorubicin treated cells co-treated with agent: doxorubicin treated cells plus agent (FIGS. 3D and 3E)
Text: as §3, §4
(§6) Western blot is shown of other RNA binding proteins that increase in mass spectrometry data. […] FIGS. 6J and 6K show Hexim, PPM1G and HuR increase in chemotreated patient samples and on doxorubicin treatment.
(§7) If METTL3 is increased by Sal003, then m6A on RNA should increase in such conditions.

Hexim1 = experiment: Western blot of Hexim1; conditions: treated cells
Text: as §6
Other RNA binding proteins such as HEXIM1 and PPM1G that increase in doxorubicin surviving cells also associate with METTL3 mRNA and with HuR. The indirect associated protein, Hexim1 is a transcription regulator but also associates with other complexes and RNAs and promotes mRNA stability under nucleotide stress. […] The phosphatase PPM1G is known to associate with Hexim1 and is activated by DNA damage/ATM signaling upon chemotherapy treatment, and upon PI3K/Akt inhibition, consistent with these conditions where METTL3 increases. On Akt inhibition, PPM1G dephosphorylates 4EBP; this inhibits canonical translation, consistent with specific mRNA translation elicited in these conditions.
Therefore, we tested whether Hexim1 was required for METTL3 levels.

ATF4 = experiment: Western analysis of ATF4 (ISR response gene); conditions: for ATF4 level in doxorubicin treated cells co-treated with agent: doxorubicin treated cells plus agent vs buffer treated
Text: as §7

m6A on RNA = experiment: m6A on ribosomal RNA depleted RNA (dot blot, 2D-TLC)
Experimental: The Western blot includes samples with control shRNA or shMETTL3. […] Tubulin and Histone serve as Western blot loading controls. Data are average of 3 replicates +/-SEM. See also FIGS. 2A-2G. […]
To test whether the increased m6A modification enzymes lead to increased m6A modification on RNA, ribosomal RNA depleted RNA from doxorubicin treated cells compared to untreated cells by dot blot analyses was tested. […] Consistent with decreased METTL3 upon knockdown, the dot blot signal is depleted when METTL3 is knocked down (FIG. 1B). Second, RNA from doxorubicin treated cells for m6A by two-dimensional-thin layer chromatography separation (2D-TLC) was performed (H. Grosjean, G. Keith, L. Droogmans, Detection and quantification of modified nucleotides in RNA using thin-layer chromatography. Methods in molecular biology (Clifton, N.J.) 265, 357-391 (2004)).

METTL3 mRNA = METTL3 mRNA level and translation (qPCR, polysome fractionation, nascent amino acid labeling); conditions: treated vs buffer treated cells, polysome fractionation and qPCR
Experimental: as §3, §4
To verify that the increase in METTL3 was at the translation level, polysome analysis was conducted first. […] We next verified increased polysome association of METTL3 mRNA with Y10B antibody immunoprecipitation in doxorubicin treated and in Sal003 cells compared to buffer treated cells (FIGS. 3I and 4F).

PARP1 = experiment: Western blot analysis of PARP1; conditions: treated cells
Experimental: as §1
Consistently, doxorubicin treated cells are sensitive to PARP inhibitors, such as Talazoparib (BMN-673, FIG. 8B).

[8] = MCF7 cells, agent alone vs untreated/buffer, Western blot
[9] = ribosomal RNA depleted RNA from treated vs untreated MCF7 cells, dot blot or 2D-TLC

## Nc1ncnc2c1nnn2[C@@H]1O[C@H](CO)[C@@H](O)[C@H]1O [8-azaadenosine]
MCF7 cells
  doxorubicin chemosurvival with co-treatment: reduced doxorubicin survival
[1]
  survival of treated cancer cells co-cultured with immune cells: sensitive to anti-tumor immunity

## Cn1c(=O)n(-c2ccc(C(C)(C)C#N)cc2)c2c3cc(-c4cnc5ccccc5c4)ccc3ncc21 [BEZ 235]
METTL3 [2]; [8]
  METTL3 level: Increase
phospho-elF2α [3]
  elF2α phosphorylation: elF2α phosphorylation

## Nc1ccn([C@@H]2O[C@H](CO)[C@@H](O)[C@@H]2O)c(=O)n1 [Cytarabine]
METTL3 [4]
  METTL3 level: transient increase
phospho-elF2α [5]
  elF2α phosphorylation: transient increase

## Cn1cc(C2=C(c3cn(C4CCN(Cc5ccccn5)CC4)c4ccccc34)C(=O)NC2=O)c2ccccc21 [Enzastaurin]
METTL3 [2]; Western blot
  METTL3 level in doxorubicin treated cells co-treated with agent: reduced
MCF7 cells
  doxorubicin chemosurvival with co-treatment: reduced

## Nc1ccn([C@@H]2O[C@H](CO)[C@@H](O)C2(F)F)c(=O)n1 [Gemcitabine]
METTL3 [2]; [8]
  METTL3 level: increase over time
METTL3 [6]
  METTL3 level: increase over time
phospho-elF2α [3]
  elF2α phosphorylation: increase over time
phospho-elF2α [7]
  elF2α phosphorylation: increase over time

## CC(=O)NCCCCCCNC(C)=O [HMBA]
METTL3 [2]; [8]
  METTL3 level: increased
METTL14; [8]
  METTL14 level: increases
phospho-elF2α [3]
  elF2α phosphorylation: elF2α phosphorylation
Hexim1
  Hexim1 level: increased

## O=C(COc1ccc(Cl)cc1)NC1CCC(NC(=O)COc2ccc(Cl)cc2)CC1 (centres unmarked) [ISRIB]
METTL3 [2]; Western blot
  METTL3 level in doxorubicin treated cells co-treated with agent: do not show increase
METTL14
  METTL14 level in doxorubicin treated cells co-treated with agent: prevent
ATF4
  ATF4 level in doxorubicin treated cells co-treated with agent: do not show increase
MCF7 cells
  doxorubicin chemosurvival with co-treatment: significant decrease
[1]
  survival of treated cancer cells co-cultured with immune cells: loss of survival

## CC(C)(C)Cn1c(N)nc2ccc(-c3[nH]c(C(C)(C)C)nc3-c3ccc(F)cc3)nc21 [LY2228820]
METTL3 [2]; Western blot
  METTL3 level in doxorubicin treated cells co-treated with agent: reduces METTL3 increase

## O=[N+]([O-])c1ccc(Nc2nc(N3CCOCC3)nc(N3CCOCC3)n2)cc1 [MHY1485]
METTL3 [2]; [8]
  METTL3 level: decreased

## COc1ccc(COc2cc3oc(=O)c4cc(C(C)O)ccc4c3cc2OC)cc1 (centres unmarked) [Palomid 529]
METTL3 [2]; [8]
  METTL3 level: Increase

## C[S+]([O-])c1ccc(-c2nc(-c3ccncc3)c(-c3ccc(F)cc3)[nH]2)cc1 (centres unmarked) [SB203580]
METTL3 [2]; Western blot
  METTL3 level in doxorubicin treated cells co-treated with agent: reduces METTL3 increase

## O=C(/C=C/c1ccccc1)NC(NC(=S)Nc1ccc(Cl)cc1)C(Cl)(Cl)Cl (centres unmarked) [Sal003]
METTL3 [2]; [8]
  METTL3 level: increased
METTL14; [8]
  METTL14 level: increased
phospho-elF2α [3]
  elF2α phosphorylation: prevented dephosphorylation
ATF4; MCF7 cells, agent alone
  non-canonical translation of ATF4: induced
m6A on RNA; [9]
  m6A on RNA: increased
METTL3 mRNA
  METTL3 mRNA on polysomes compared to monosomes: increased
PARP1
  PARP1 level: increases

## Cn1ncnc1[C@H]1c2n[nH]c(=O)c3cc(F)cc(c23)N[C@@H]1c1ccc(F)cc1 [Talazoparib]
MCF7 cells
  doxorubicin chemosurvival with co-treatment: sensitive

## CC(=O)O[C@H]1C(=O)[C@@]2(C)[C@H]([C@H](OC(=O)c3ccccc3)[C@]3(O)C[C@H](OC(=O)[C@H](O)[C@@H](NC(=O)c4ccccc4)c4ccccc4)C(C)=C1C3(C)C)[C@]1(OC(C)=O)CO[C@@H]1C[C@@H]2O [Taxol]
METTL3 [6]
  METTL3 level: increase over time
phospho-elF2α [7]
  elF2α phosphorylation: increase over time

## CCC(=O)N1CCN(c2ccc(-n3c(=O)ccc4cnc5ccc(-c6cnc7ccccc7c6)cc5c43)cc2C(F)(F)F)CC1 [Torin1]
METTL3 [2]; MCF7 3D tumor spheres
  METTL3 level: increase
METTL3 [2]; [8]
  METTL3 level: increased
METTL14; MCF7 3D tumor spheres
  METTL14 level: increase
phospho-elF2α [3]
  elF2α phosphorylation: elF2α phosphorylation
m6A on RNA; MCF7 3D tumor spheres, dot blot
  m6A on RNA: increased

## CN(C)C(=N)N=C(N)N [metformin]
METTL3 [2]; Western blot
  METTL3 level in doxorubicin treated cells co-treated with agent: decreased induction
phospho-elF2α [3]
  elF2α phosphorylation in doxorubicin treated cells with agent: reduction
MCF7 cells
  doxorubicin chemosurvival with co-treatment: decreased chemosurvival
[1]
  survival of treated cancer cells co-cultured with immune cells: loss of survival

## [H]/N=C(/N)N/C(=N/[H])NCCc1ccccc1 [phenformin]
METTL3 [2]; Western blot
  METTL3 level in doxorubicin treated cells co-treated with agent: decreased induction
phospho-elF2α [3]
  elF2α phosphorylation in doxorubicin treated cells with agent: reduction
MCF7 cells
  doxorubicin chemosurvival with co-treatment: decreased chemosurvival; also recorded: reduced doxorubicin survival
[1]
  survival of treated cancer cells co-cultured with immune cells: loss of survival

## C/C=C(/C)C(=O)O[C@H]1C(C)=C2[C@H]([C@@H]1OC(=O)CCCCCCC)[C@@](C)(OC(C)=O)C[C@H](OC(=O)CCC)[C@@]1(O)[C@H]2OC(=O)[C@@]1(C)O [thapsigargin]
METTL3 [2]; [8]
  METTL3 level: increase
METTL14; [8]
  METTL14 level: increase
phospho-elF2α [3]
  elF2α phosphorylation: induces

## O=c1n(CCCN2CCN(c3cccc(Cl)c3)CC2)nc2ccccn12 [trazodone]
METTL3 [2]; Western blot
  METTL3 level in doxorubicin treated cells co-treated with agent: do not show increase
METTL14
  METTL14 level in doxorubicin treated cells co-treated with agent: prevent
ATF4
  ATF4 level in doxorubicin treated cells co-treated with agent: do not show increase
MCF7 cells
  doxorubicin chemosurvival with co-treatment: significant decrease
MCF7 cells; METTL3 depleted (shMETTL3) cells, doxorubicin plus Trazodone vs buffer (FIG. 8A)
  doxorubicin chemosurvival of shMETTL3 cells with agent: Synergistic decrease in chemosurvival was not observed
[1]
  survival of treated cancer cells co-cultured with immune cells: loss of survival

## poly I:C
METTL3 [2]; [8]
  METTL3 level: increase
METTL14; [8]
  METTL14 level: increase
phospho-elF2α [3]
  elF2α phosphorylation: induces
m6A on RNA; [9]
  m6A on RNA: increased
Hexim1
  Hexim1 level: increases
